Values of other authors as cited in US20110136157A1, “Copper regulation evaluation and therapy” (priority 2005, published 2011).
Like-named read-outs stand apart in the source and are kept apart here.

Experiments:
[1] = tested on: Wilson's disease patients; details: long-term use

Row | solubility (alcohol) | solubility (water) | Structure (SMILES) | long-term or major side effects [1]
1 | – | – | CC(=O)[O-].CC(=O)[O-].[Zn+2] [Zinc acetate] | has not shown any long-term or major side effects
2 | slightly soluble in alcohol | freely soluble in water | CC(C)(S)[C@@H](N)C(=O)O [Penicillamine, 3-mercapto-D-valine] | –
